Source: PMC3961306, “Comparison of the Cancer Gene Targeting and Biochemical Selectivities of All Targeted Kinase Inhibitors Approved for Clinical Use” (PLoS ONE, 2014)
Read-outs that look alike come from different tables or passages of the source.

Assays:
Experiment in all cases: Kinase profiling in a biochemical assay panel (mobility shift assays and ELISA), %-inhibition at 1 μM; selectivity entropy
[1] = molecular target: panel of more than 300 wild-type and mutant kinases (313 kinase panel) (Homo sapiens, UniProt Q8N4C8)
[2] = molecular target: panel of more than 300 wild-type and mutant kinases (313 kinase panel) (Homo sapiens, UniProt P06239); conditions: kinase LCK; compound at 1 μM
[3] = molecular target: panel of more than 300 wild-type and mutant kinases (313 kinase panel) (Homo sapiens, UniProt Q9P286); conditions: kinase PAK5; 1 μM
[4] = molecular target: panel of more than 300 wild-type and mutant kinases (313 kinase panel) (Homo sapiens, UniProt Q13233); conditions: kinase MAP3K1; compound at 1 μM
[5] = molecular target: panel of more than 300 wild-type and mutant kinases (313 kinase panel) (Homo sapiens, UniProt Q9P1W9); conditions: kinase PIM2; 1 μM
[6] = molecular target: panel of more than 300 wild-type and mutant kinases (313 kinase panel) (Homo sapiens, UniProt Q04912); conditions: kinase RON; 1 μM
[7] = molecular target: T1, panel of more than 300 wild-type and mutant kinases (313 kinase panel) (Homo sapiens, UniProt O60285); conditions: kinase NuaK1; 1 μM
T1 sequence (O60285 1-661): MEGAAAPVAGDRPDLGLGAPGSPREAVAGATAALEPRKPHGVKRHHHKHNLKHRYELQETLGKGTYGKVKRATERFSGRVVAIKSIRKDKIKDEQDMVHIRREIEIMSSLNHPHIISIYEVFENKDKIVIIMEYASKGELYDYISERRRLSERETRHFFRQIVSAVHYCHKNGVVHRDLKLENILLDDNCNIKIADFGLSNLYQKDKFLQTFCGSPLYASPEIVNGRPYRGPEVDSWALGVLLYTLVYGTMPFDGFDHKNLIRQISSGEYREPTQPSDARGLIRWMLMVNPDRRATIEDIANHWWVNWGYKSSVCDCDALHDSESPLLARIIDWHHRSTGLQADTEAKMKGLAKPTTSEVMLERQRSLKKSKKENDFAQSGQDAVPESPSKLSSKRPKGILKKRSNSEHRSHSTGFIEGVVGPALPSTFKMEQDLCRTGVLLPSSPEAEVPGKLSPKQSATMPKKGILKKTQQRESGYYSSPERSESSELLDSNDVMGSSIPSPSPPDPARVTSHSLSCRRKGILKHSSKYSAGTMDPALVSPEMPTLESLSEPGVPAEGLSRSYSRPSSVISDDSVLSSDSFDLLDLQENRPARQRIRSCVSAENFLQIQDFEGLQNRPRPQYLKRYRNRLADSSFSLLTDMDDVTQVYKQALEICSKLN

[8] = molecular target: panel of more than 300 wild-type and mutant kinases (313 kinase panel) (Homo sapiens, UniProt Q13131); conditions: kinase AMPKα1/β1/γ1; 1 μM compound
[9] = molecular target: panel of more than 300 wild-type and mutant kinases (313 kinase panel) (Homo sapiens, UniProt Q13882); conditions: kinase BRK; 1 μM compound
[10] = molecular target: panel of more than 300 wild-type and mutant kinases (313 kinase panel) (Homo sapiens, UniProt Q02750); conditions: kinase MAP2K1; compound at 1 μM
[11] = molecular target: panel of more than 300 wild-type and mutant kinases (313 kinase panel) (Homo sapiens, UniProt Q9UPE1); conditions: kinase MSSK1; 1 μM
[12] = molecular target: T2, panel of more than 300 wild-type and mutant kinases (313 kinase panel) (Homo sapiens, UniProt Q9NRA0); conditions: kinase SPHK2; 1 μM
T2 sequence (Q9NRA0 1-654): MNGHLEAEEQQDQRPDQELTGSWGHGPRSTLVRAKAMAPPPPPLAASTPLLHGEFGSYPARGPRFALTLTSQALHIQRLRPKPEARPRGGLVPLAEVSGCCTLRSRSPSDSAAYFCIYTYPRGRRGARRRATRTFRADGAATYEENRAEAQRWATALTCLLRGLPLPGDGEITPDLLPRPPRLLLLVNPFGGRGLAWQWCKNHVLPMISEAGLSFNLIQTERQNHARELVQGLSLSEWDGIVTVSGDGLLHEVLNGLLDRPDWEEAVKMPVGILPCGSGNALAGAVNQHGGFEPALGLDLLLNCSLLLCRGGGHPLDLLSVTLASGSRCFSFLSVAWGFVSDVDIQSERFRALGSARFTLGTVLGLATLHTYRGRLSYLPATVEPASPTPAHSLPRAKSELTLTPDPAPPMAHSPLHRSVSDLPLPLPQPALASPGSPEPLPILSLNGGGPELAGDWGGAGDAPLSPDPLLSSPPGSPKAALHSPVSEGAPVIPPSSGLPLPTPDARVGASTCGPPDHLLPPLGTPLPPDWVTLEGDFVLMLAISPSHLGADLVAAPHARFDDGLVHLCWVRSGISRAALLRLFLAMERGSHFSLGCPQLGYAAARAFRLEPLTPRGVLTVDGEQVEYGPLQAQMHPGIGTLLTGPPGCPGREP

[13] = test system: panel of more than 300 wild-type and mutant kinases (313 kinase panel)
[14] = kinase EGFR(d746-750), compound at 1 μM
[15] = kinase EGFR(d746-750/T790M), compound at 1 μM
[16] = kinase EML4-ALK, compound at 1 μM

panel of more than 300 wild-type and mutant kinases (313 kinase panel) (Homo sapiens, UniProt P06239), sequence (P06239 whole entry, change not shown): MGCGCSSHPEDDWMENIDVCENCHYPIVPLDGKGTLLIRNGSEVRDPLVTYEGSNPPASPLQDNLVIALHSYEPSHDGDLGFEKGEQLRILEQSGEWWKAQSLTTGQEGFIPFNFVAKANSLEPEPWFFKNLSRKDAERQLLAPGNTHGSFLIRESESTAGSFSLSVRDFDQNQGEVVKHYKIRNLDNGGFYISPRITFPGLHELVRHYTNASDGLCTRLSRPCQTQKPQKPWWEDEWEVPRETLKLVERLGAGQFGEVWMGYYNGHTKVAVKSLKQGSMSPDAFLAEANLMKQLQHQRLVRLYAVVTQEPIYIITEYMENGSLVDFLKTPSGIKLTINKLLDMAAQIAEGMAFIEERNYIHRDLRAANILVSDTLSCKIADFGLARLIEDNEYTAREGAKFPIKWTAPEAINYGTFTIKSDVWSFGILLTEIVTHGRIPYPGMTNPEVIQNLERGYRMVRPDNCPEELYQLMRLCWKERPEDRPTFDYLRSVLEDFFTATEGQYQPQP
panel of more than 300 wild-type and mutant kinases (313 kinase panel) (Homo sapiens, UniProt Q8N4C8), sequence (Q8N4C8 whole entry, change not shown): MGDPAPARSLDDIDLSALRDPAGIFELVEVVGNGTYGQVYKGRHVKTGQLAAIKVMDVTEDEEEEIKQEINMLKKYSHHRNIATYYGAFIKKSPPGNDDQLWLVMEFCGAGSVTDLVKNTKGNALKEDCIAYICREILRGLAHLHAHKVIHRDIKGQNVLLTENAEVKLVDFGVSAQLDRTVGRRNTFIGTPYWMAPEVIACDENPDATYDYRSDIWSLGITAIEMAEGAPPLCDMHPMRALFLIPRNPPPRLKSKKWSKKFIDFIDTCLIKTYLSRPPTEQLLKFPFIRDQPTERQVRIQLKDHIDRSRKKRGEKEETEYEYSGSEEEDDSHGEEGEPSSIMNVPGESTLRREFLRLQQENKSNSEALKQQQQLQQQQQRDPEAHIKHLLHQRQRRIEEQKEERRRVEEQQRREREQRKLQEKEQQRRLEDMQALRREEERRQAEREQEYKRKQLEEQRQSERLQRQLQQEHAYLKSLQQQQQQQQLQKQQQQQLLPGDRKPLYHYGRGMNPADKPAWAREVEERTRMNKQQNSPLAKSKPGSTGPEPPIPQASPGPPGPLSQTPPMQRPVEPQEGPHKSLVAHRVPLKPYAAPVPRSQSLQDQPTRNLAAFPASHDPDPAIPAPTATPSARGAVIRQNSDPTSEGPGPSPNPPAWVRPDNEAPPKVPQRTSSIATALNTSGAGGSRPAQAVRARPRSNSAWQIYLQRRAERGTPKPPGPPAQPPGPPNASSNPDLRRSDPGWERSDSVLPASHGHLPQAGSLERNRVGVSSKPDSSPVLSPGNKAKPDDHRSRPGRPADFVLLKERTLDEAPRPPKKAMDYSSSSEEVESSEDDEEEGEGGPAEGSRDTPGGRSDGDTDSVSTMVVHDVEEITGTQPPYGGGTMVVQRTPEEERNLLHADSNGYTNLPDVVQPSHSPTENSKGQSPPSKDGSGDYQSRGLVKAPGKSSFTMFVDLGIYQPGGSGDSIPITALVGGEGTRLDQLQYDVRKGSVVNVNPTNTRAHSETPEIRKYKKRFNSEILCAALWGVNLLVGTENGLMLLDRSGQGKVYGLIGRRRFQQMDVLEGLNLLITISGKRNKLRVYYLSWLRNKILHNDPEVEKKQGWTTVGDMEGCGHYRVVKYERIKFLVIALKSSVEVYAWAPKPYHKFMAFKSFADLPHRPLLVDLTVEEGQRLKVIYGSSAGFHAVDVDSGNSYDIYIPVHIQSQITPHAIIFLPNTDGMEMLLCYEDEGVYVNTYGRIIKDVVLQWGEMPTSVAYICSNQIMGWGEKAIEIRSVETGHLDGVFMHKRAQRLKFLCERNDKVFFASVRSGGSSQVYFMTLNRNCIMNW
panel of more than 300 wild-type and mutant kinases (313 kinase panel) (Homo sapiens, UniProt Q13882), sequence (Q13882 whole entry, change not shown): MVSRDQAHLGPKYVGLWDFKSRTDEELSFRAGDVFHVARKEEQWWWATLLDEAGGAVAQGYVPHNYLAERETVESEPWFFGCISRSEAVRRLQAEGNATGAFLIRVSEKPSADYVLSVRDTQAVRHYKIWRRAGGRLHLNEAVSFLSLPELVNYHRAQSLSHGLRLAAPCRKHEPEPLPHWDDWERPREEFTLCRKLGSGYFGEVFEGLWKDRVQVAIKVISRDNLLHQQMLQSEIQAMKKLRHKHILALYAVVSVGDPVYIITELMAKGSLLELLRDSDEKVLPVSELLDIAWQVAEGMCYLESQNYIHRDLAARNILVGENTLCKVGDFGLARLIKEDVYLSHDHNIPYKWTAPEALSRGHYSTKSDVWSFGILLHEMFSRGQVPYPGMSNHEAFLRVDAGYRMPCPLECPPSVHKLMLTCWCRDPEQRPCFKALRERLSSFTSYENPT
panel of more than 300 wild-type and mutant kinases (313 kinase panel) (Homo sapiens, UniProt Q13131), sequence (Q13131 whole entry, change not shown): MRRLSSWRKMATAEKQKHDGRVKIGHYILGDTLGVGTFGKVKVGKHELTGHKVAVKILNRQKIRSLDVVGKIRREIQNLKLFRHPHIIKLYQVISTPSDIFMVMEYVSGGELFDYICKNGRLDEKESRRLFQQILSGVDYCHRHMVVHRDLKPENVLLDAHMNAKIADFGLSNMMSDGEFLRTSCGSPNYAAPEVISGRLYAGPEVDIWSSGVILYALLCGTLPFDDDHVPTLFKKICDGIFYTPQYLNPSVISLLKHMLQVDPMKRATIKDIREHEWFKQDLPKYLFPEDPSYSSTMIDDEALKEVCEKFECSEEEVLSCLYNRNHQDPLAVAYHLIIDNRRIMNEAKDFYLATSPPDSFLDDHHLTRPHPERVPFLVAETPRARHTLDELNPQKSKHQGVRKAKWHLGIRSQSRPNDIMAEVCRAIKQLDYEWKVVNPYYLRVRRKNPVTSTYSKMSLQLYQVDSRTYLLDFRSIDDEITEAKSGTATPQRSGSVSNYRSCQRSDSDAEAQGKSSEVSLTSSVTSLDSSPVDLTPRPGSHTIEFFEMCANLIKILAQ
panel of more than 300 wild-type and mutant kinases (313 kinase panel) (Homo sapiens, UniProt Q13233), sequence (Q13233 whole entry, change not shown): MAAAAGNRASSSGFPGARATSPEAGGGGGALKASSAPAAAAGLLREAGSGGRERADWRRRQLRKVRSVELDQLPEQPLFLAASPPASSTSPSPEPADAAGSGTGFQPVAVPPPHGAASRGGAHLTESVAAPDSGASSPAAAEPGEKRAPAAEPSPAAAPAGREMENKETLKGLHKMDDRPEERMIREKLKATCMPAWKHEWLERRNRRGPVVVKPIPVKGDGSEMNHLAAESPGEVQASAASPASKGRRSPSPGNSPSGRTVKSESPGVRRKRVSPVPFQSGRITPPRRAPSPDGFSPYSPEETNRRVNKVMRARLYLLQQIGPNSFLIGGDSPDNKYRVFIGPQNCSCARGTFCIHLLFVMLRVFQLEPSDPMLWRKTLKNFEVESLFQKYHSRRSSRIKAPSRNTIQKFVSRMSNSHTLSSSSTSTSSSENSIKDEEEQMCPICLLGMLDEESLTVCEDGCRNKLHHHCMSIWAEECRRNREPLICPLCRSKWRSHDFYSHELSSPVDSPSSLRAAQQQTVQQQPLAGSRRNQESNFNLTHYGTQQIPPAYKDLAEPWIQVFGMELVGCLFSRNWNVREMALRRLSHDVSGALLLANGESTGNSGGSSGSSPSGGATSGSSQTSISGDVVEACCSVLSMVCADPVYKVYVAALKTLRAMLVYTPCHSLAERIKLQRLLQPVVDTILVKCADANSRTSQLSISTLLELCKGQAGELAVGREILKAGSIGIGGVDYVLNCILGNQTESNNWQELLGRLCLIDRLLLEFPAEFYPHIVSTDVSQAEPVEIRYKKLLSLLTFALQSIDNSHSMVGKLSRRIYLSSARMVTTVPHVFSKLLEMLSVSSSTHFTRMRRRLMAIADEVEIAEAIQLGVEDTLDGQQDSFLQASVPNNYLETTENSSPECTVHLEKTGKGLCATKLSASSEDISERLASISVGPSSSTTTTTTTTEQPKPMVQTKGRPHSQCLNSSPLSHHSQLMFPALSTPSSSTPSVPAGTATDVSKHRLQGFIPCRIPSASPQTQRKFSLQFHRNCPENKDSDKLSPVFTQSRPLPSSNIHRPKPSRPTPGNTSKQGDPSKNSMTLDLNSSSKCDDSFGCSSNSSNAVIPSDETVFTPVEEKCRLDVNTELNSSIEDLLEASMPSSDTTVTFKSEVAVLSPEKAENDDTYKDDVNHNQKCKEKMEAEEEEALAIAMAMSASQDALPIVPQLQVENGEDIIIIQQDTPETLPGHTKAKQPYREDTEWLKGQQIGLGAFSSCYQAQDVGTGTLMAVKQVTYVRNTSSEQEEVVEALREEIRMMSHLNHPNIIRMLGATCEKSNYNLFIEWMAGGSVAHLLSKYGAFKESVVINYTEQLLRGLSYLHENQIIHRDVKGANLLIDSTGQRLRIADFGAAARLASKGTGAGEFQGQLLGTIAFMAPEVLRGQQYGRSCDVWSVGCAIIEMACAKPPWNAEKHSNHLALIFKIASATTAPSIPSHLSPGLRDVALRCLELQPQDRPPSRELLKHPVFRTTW
panel of more than 300 wild-type and mutant kinases (313 kinase panel) (Homo sapiens, UniProt Q9P286), sequence (Q9P286 whole entry, change not shown): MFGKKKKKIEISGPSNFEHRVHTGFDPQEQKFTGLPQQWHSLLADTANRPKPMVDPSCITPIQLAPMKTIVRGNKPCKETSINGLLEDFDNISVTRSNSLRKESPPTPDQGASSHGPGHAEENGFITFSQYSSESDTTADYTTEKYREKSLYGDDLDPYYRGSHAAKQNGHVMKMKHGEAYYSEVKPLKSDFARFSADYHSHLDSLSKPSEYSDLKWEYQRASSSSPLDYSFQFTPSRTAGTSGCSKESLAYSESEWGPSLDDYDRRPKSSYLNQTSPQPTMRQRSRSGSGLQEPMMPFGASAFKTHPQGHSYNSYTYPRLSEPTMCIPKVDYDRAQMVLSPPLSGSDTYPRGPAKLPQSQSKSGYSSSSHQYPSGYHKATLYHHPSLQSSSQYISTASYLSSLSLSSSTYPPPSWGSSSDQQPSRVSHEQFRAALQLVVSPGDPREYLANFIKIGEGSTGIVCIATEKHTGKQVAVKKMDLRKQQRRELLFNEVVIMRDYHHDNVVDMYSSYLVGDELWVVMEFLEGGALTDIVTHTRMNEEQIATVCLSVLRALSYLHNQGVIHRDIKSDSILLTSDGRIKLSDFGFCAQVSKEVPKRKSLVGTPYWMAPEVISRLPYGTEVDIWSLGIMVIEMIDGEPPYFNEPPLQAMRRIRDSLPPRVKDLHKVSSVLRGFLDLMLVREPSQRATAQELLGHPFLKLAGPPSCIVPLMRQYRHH

Row | SMILES | %-inhibition of MINK ([1]; kinase MINK, 1 μM) | %-inhibition of LCK [2] | %-inhibition of PAK5 [3] | %-inhibition of MAP3K1 [4] | %-inhibition of PIM2 [5] | %-inhibition of RON [6] | %-inhibition of NuaK1 [7] | %-inhibition, AMPKα1/β1/γ1 [8] | %-inhibition, BRK [9] | %-inhibition of MAP2K1 [10] | %-inhibition of MSSK1 [11] | %-inhibition of SPHK2 [12] | %-inhibition of EGFR(d746-750) [13, 14] | %-inhibition of EGFR(d746-750/T790M) [13, 15] | %-inhibition of EML4-ALK [13, 16] | %-inhibition of LYNb ([13]; kinase LYNb, compound at 1 μM) | %-inhibition of NPM1-ALK ([13]; kinase NPM1-ALK, 1 μM) | %-inhibition of PKCβ2 ([13]; kinase PKCβ2, 1 μM) | %-inhibition of SRM ([13]; kinase SRM, 1 μM) | %-inhibition of TAK1-TAB1 ([13]; kinase TAK1-TAB1, 1 μM) | other results
1 | Cc1ccc(Nc2nccc(N(C)c3ccc4c(C)n(C)nc4c3)n2)cc1S(N)(=O)=O [pazopanib] | 35% | 73% | 2% | 37% | -4% | 13% | 73% | -0.748% | 70% | 2.11% | -2% | 4% | – | – | – | – | – | – | – | – | %-inhibition of NPM1-ALK [13]: 21%; %-inhibition of TAK1-TAB1 [13]: -4.34%; %-inhibition of EML4-ALK ([13]; 1 µM): 27%; %-inhibition of LYNb ([13]; 1 µM): 85%; %-inhibition of PKCβ2 ([13]; 1 µM): 4.55%; %-inhibition of SRM ([13]; 1 µM): 63%
2 | CNC(=O)c1cc(Oc2ccc(NC(=O)Nc3ccc(Cl)c(C(F)(F)F)c3)c(F)c2)ccn1 [regorafenib] | 24% | 85% | -8% | 4% | -9% | 3.5% | -1.75% | -0.723% | 20% | -8.57% | 43% | -3.2% | 12% | 3.63% | -7% | 85% | -7% | -9% | 66% | 60% | –
3 | N#CC[C@H](C1CCCC1)n1cc(-c2ncnc3[nH]ccc23)cn1 [ruxolitinib] | – | 21% | 14% | -10% | -4% | -5% | 55% | 2.17% | -4% | 11% | 6% | 6% | – | – | – | – | – | – | – | – | %-inhibition of MINK ([1]; 1 µM): -6%; %-inhibition of NPM1-ALK [13]: 65%; %-inhibition of TAK1-TAB1 [13]: 6%; %-inhibition of EGFR(d746-750) ([13]; 1 µM): -1.14%; %-inhibition of EGFR(d746-750/T790M) ([13]; 1 µM): 1.32%; %-inhibition of EML4-ALK ([13]; 1 µM): 64%; %-inhibition of LYNb ([13]; 1 µM): 8%; %-inhibition of PKCβ2 ([13]; 1 µM): 5%; %-inhibition of SRM ([13]; 1 µM): 4.69%
4 | CO[C@H]1C[C@@H]2CC[C@@H](C)[C@@](O)(O2)C(=O)C(=O)N2CCCC[C@H]2C(=O)O[C@H]([C@H](C)C[C@@H]2CC[C@@H](OC(=O)C(C)(CO)CO)[C@H](OC)C2)CC(=O)[C@H](C)/C=C(\C)[C@@H](O)[C@@H](OC)C(=O)[C@H](C)C[C@H](C)/C=C/C=C/C=C/1C [temsirolimus] | -4% | -2.22% | -6% | 6% | -6% | -3% | 3.3% | -4.34% | -6% | 0.452% | -8% | 2.77% | -3% | -0.33% | -7% | -10% | -7.57% | -1.6% | -4% | -3.77% | –
5 | CC(=O)Nc1cccc(-n2c(=O)n(C3CC3)c(=O)c3c(Nc4ccc(I)cc4F)n(C)c(=O)c(C)c32)c1 [trametinib] | -1.8% | -7% | -2.62% | 99% | -4% | -6.44% | -0.634% | -12% | -5.53% | 99% | -5% | -14% | -2.58% | 1.72% | -2.51% | -2.58% | -1.79% | -1.58% | -4% | 5.47% | –
6 | CCCS(=O)(=O)Nc1ccc(F)c(C(=O)c2c[nH]c3ncc(-c4ccc(Cl)cc4)cc23)c1F [vemurafenib] | 10% | 81% | -1.23% | 13% | -2% | -2% | 4% | -1.59% | 98% | 18% | -6.65% | 8% | 2.81% | 4.62% | -1.53% | 62% | -1.72% | -3% | 102% | 9% | –
